Values joined by “and” are separate entries in the source; they are usually repeats but may differ in a detail not shown here. Identical values can stand only once. Like-named read-outs stand apart in the source and are kept apart here.
Key:
HIV-1NL4-3-Ren [1] = assay: Anti-HIV activity in MT-2 cells infected with HIV-1NL4-3-Ren (Renilla luciferase); format: cell-based; conditions: for EC50: Human immunodeficiency virus 1, MT2, 48 h
Protocol: (§1) The methodology used to perform these experiments in MT-2 cell culture was reported previously. Infectious HIV-1NL4-3-Ren supernatants were obtained from transfection in 293T cells with plasmid pNL4-3-Ren, where a Renilla luciferase reporter gene replaces the nef gene of the wild-type pNL4-3 HIV-1 clone, which includes LTR promoters. MT-2 cells were infected with these supernatants (100,000 RLUs/well) in the presence of the compounds, and anti-HIV activity was quantified 48 h post-infection by determining Renilla luciferase activity in cell lysates compared to a non-treated control (100%), following the manufacturer’s instructions (Renilla Assay System, Promega). Briefly, 100 µL of Renilla Assay System buffer was added to obtain cell lysates, and 35 µL of these lysates was then transferred to a white 96-well microplate. RLUs were recorded after injecting 35 µL of Renilla substrate (10 s reading) using a luminometer (Berthold Detection Systems). Cellular viability was evaluated in mock-infected cells similarly treated with the same concentrations of compounds using the CellTiter-Glo assay (Promega). To assess the antiretroviral activity of benfluron in human primary cells, PBMCs were isolated from healthy donors via Ficoll density gradient centrifugation and subsequently cultured in a PHA (1 µg/mL) and IL-2 (100 U/mL)-enriched medium for 48 h at 37 °C. Activated PBMCs were infected with HIV-1NL4-3 [20] at a multiplicity of infection of 0.001 and cultured in the presence of serial dilutions (5 nM–100 µM) of benfluron. Three days post-infection, the supernatant was collected, and the HIV-inhibitory effect of the drug was measured using the Alliance HIV-1 p24 Antigen Elisa Kit (Perkin Elmer). The toxicity of the compound in PBMCs was evaluated as explained above for MT-2 cells. In both experiments, the potential background toxicity and antiviral effect of the DMSO vehicle used to solubilize the molecule were determined in parallel. In all cases, EC50 and CC50 values were calculated with GraphPad Prism using log(inhibitor) vs. response non-linear curve fitting. All cellular assays were performed in triplicate.

[2] = test system: full-length RRE–Rev complex; assay: EMSA of full-length RRE–Rev complex formation inhibition; format: biochemical, HIV-1; conditions: low-order RRE–Rev complex EMSA bands; 70 nM RRE, 0.75 µM Rev; 95% CI and R2 in parentheses
Protocol: These assays were used to monitor full-length RRE–Rev inhibition and involved the viral protein Rev and a 234 nt RRE sequence (Figure 1), obtained as reported previously. RRE was prepared in native conditions using a procedure based on electrophoresis. The reactions used 70 nM RRE and 0.75 μM Rev dissolved in an aqueous solution containing 10 mM HEPES, pH 7.5, 300 mM KCl, 1 mM MgCl2 and 0.5 mM EDTA, and the samples were loaded onto 8% polyacrylamide gels with TB running buffer. Gels were run at 4 °C for 3 h at 150 V, and the bands were stained with SYBR Gold and quantified with ImageJ software. In all cases, we monitored the disappearance of the bands corresponding to low-order RRE–Rev complexes (Figure 4A) using a sigmoidal inhibitory model and GraphPad Prism. At least three independent experiments were conducted for each compound.

RRE subdomain IIB = assay: Fluorescence binding to fluorescein-labeled (U23) RRE subdomain IIB RNA hairpin; set-up: species or system HIV-1; conditions: RRE IIB hairpin labeled with fluorescein at U23; 100 nM RNA, pH 6.6; 95% CI and R2 in parentheses
Protocol: These experiments measured compound association to an RRE subdomain IIB RNA oligonucleotide labeled with fluorescein at extrahelical loop nucleotide U23 (Figure 1) and were carried out in a Spectramax iD5 microplate reader (Molecular Devices) using 100 nM RNA dissolved in 10 mM sodium phosphate, pH 6.6, and 0.1 mM EDTA, as described before. The equilibrium dissociation constants, Kd, were determined by fitting the fluorescence intensity curves to a two-state binding model with GraphPad Prism software. […] All fluorescence experiments were carried out at least three times for each compound.

in vitro = format: cell-based; conditions: human
Protocol: as §1

HIV-1NL4-3-Ren [3] = test system: HIV-1NL4-3-Ren; set-up: method as in PMID 30071201; conditions: MT-2 cells, HIV-1 infection; cited from earlier work
MT-2 cells = test system: MT-2 cells; set-up: method as in PMID 30071201; conditions: cited from earlier work
HIV-1NL4-3 = assay: Antiretroviral activity in activated PBMCs infected with HIV-1NL4-3 (p24 ELISA); format: cell-based
Protocol: as §1, with “Briefly, 100 µL of Renilla Assay System buffer was added to obtain cell lysates, and 35 µL of these lysates was then transferred to a white 96-well microplate.” left out, “To assess the antiretroviral activity of benfluron in human primary cells, PBMCs were isolated from healthy donors via Ficoll density gradient centrifugation and subsequently cultured in a PHA (1 µg/mL) and IL-2 (100 U/mL)-enriched medium for 48 h at 37 °C. Activated PBMCs were infected with HIV-1NL4-3 [20] at a multiplicity of infection of 0.001 and cultured in the presence of serial dilutions (5 nM–100 µM) of benfluron.” left out, “In all cases, EC50 and CC50 values were calculated with GraphPad Prism using log(inhibitor) vs. response non-linear curve fitting. All cellular assays were performed in triplicate.” left out

PBMCs = assay: in vitro; format: cell-based; conditions: human
Protocol: as §1

Compound | EC50 (HIV-1NL4-3-Ren [1]) [µM] | IC50 [2] | Kd (RRE subdomain IIB) [µM] | CC50 at 48 h (in vitro; CC50) [µM] | selectivity index (SI; CC50/EC50) (HIV-1NL4-3-Ren [1]; MT-2 cells) | CC50 at 48 h (in vitro; MT-2 cells, mock-infected, 95% CI and R2 in parentheses, read-out: CC50) [µM] | EC50 (HIV-1NL4-3-Ren [3]) [µM] | CC50 (MT-2 cells) [µM] | selectivity index (SI; CC50/EC50) (HIV-1NL4-3) | EC50 (HIV-1NL4-3; Human immunodeficiency virus 1, PBMC, 72 h, HIV-1NL4-3, three days post-infection, p24, read-out: antiviral EC50) [µM] | CC50 (in vitro; cytotoxic CC50) [µM] | CC50 (PBMCs) [µM]
CN(C)CCOc1ccc2c(c1)C(=O)c1ccccc1-2 [Compound 1] | > 100 | > 50 µM | 45.6 | > 100 | – | – | – | – | – | – | – | –
CN(C)CCOc1cccc(C(=O)c2ccccc2)c1 [Compound 2] | ~100 | > 50 µM | > 100 | ~100 | – | – | – | – | – | – | – | –
CN(C)CCOc1ccc2c(c1)Cc1ccccc1-2 [Compound 3] | ~100 | > 50 µM | 106 | ~100 | – | – | – | – | – | – | – | –
CN(C)CCOc1ccc(-c2ccccc2)c2ccccc12 [Compound 4] | 17 | > 50 µM | 77.5 | 28.7 | – | – | – | – | – | – | – | –
CN(C)CCOc1cc(C(=O)c2ccccc2)cc2ccccc12 [Compound 5] | 19.4 | ~29 µM and 29 µM | 95.1 | 49.7 | 2.6 | – | – | – | – | – | – | –
CN1CCN(CCOc2cc(C(=O)c3ccccc3)cc3ccccc23)CC1 [Compound 6] | 24.2 | ~45 µM and 45 µM | 34 | 20 to 100 | – | 20 to 49.7 | – | – | – | – | – | –
CN(C)CCOc1cc2c(c3ccccc13)-c1ccccc1C2=O [benfluron] | – | 5 µM | 4.83 | – | – | – | 0.83 | 28.1 | 1.3 | 5.5 | 7.1 | 7.09

From publication PMC10609163, “Exploring the HIV-1 Rev Recognition Element (RRE)–Rev Inhibitory Capacity and Antiretroviral Action of Benfluron Analogs” (Molecules, 2023)
